Reference: patent publication USRE45313E1, “Exendin variant peptides” (priority 1999, dated 2014)

Assays:
leucine aminopeptidase = biological target: T1, leucine aminopeptidase (Sus scrofa, UniProt P28839); assay: In vitro stability in leucine aminopeptidase solution; conditions: pH 7.4; for half-life at 0.1 mg/ml: isolated enzyme aminopeptidase
T1 sequence (P28839 1-519): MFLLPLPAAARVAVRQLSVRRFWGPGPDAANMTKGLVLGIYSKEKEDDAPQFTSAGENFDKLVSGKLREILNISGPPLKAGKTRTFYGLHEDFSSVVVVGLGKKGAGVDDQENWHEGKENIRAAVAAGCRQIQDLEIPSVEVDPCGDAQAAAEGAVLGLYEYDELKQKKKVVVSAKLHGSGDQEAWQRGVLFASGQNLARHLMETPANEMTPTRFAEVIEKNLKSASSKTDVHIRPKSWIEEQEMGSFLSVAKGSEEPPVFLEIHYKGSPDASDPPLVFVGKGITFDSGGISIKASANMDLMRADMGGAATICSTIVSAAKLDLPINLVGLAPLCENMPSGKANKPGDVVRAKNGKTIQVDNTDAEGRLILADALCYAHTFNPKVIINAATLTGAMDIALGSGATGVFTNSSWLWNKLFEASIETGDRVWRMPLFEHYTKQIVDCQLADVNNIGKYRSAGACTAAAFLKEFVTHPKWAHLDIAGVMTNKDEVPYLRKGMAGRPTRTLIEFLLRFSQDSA
Description: (§1) A SHT200D block heater from Stuart Scientific was used for heating of the peptide/enzyme solutions during the stability experiments. The degradation of the test compounds was studied at 37° C. in 50 mM phosphate buffer solutions of pH 7.4 containing leucine aminopeptidase (25 U/ml) or carboxypeptidase A (1 U/ml) or 100 mM ammoniumbicarbonate buffer of pH 8.0 containing dipeptidyl aminopeptidase IV (0.5 U/ml). Experiments were initiated by addition of an aliquot (100 μl) of a stock solution (1 mg/ml) of the peptide in water to 900 μl preheated enzyme solution in an Eppendorf microvial giving an initial concentration of 0.1 mg/ml (˜1.7·10−5-1.8·10−5 M) of the peptide. The peptide/enzyme solution was kept at 37° C. and at appropriate time intervals samples of 100 μl were withdrawn from the peptide/enzyme solution and mixed thoroughly with 20 μl 25% TFA in acetonitrile in order to stop the enzymatic degradation process. The inactivated samples were transferred to autosampler vials and analysed for content of intact test compound by HPLC as described below.
(§2) Samples from the stability experiments performed as described above were analysed by gradient HPLC analysis using the instrumentation described above and the following experimental conditions.
(§3) In vitro stability studies with the present peptides and peptide conjugates in the presence of selected proteolytic enzymes are applied as a tool for evaluating the protection of said peptides against proteolysis in vivo.
(§4) Water used was of highest quality obtained from a Milli-Q water treatment system (Millipore, Bedford, Mass., U.S.A.). Acetonitrile (ACN) was of super gradient quality obtained from Labscan Ltd. (Dublin, Ireland). […] Leucine aminopeptidase (EC 3.4.11.1), Carboxypeptidase A (EC 3.4.17.1) and Dipeptidyl peptidase (Dipeptidyl aminopeptidase IV, EC 3.4.14.5) were all obtained from Sigma (St. Louis, Mo., U.S.A.). Gradient HPLC analysis was done using a Hewlett Packard HP 1100 HPLC system consisting of a HP 1100 Binary Pump, a HP 1100 Autosampler, A HP 1100 Column Thermostat and a HP 1100 Variable Wavelength Detector. Hewlett Packard Chem-station for LC software (Rev. A.06.01) was used for instrument control and data acquisition. A Vydac 238TP54 (150×4.6 mm I.D.) column packed with 5 μm, C18, 300 Å

[1] = biological target: dipeptidyl aminopeptidase IV (Sus scrofa, UniProt P22411); assay: In vitro stability in dipeptidyl aminopeptidase IV solution; conditions: pH 8; for half-life at 0.1 mg/ml: isolated enzyme dpp iv
Description: as §1, §2, §3, §4

in vitro = conditions: 37 C, followed for 720 min; for half-life at 10 µg/ml: Sprague-Dawley, rat, heparin-stabilised rat plasma, T½ in rat plasma; for T½ in rat plasma / kobs (degradation rate): heparin stabilised rat plasma
Description: The degradation of the two test compounds and in heparin stabilised rat (Sprague-Dawley) plasma was followed by the combination of solid phase extraction and LC-MS. The degradation was followed for 720 minutes in plasma.
Blank rat plasma in sodium heparin (5000 units/mL) were obtained from Harlan Sera Lab Ltd. (Loughborough, UK).
The LC-MS analysis was performed on an HP 1100 instrument consisting of an on-line degasser, a quaternary gradient pump, an auto sampler, a column oven, Hewlett Packard (Wilmington. Del., U.S.A.) in combination with a Quattro Ultima mass spectrometer from Micromass (Altrincham, UK). Both the LC and MS were controlled by MassLynx 3.3 software. The LC separations prior to MS detection were performed on a Vydac 218MS52 (2.1×250 mm) column (Hesperia, Calif., U.S.A.).
The initial plasma volume was 1000 μl (37° C.). From the initial plasma volume, 100 μl was transferred to a 0.75 ml HPLC vial (used as blank), mixed with 560 μl extraction solution (MeCN:0.18 M ammonium carbonate pH 9.5 (6:94 v/v), 4 C) and extracted by Solid Phase Extraction using ASPEC XL4 Robot. A volume of 100 μl stock solution was added to the remaining 900 μl plasma, mixed thoroughly and incubated at 37 C (corresponding to an initial concentration of 10 μg of the test compounds/ml). At each time point (0.2, 60, 120, 180, 240, 360, 480, 662 and 720 min., respectively) 100 μl of the drug containing plasma was collected, mixed with 560 μl ice cold extraction solution and immediately extracted by SPE as described above. The extracted plasma samples were analysed by LC-MS.
The samples were kept at 18° C. in the autosampler tray prior to injection of 10 μl. The separations were performed at 30° C. on a Vydac 218MS52 (2.1×250 mm) LC column using a linear gradient from 15 to 50% B within 14 min. at a flow rate of 250 μl/min 0.1% formic acid in water was used as mobile phase A and 0.1% formic acid in MeCN as mobile phase B. Compound 4 and Compound (iii) were detected by single ion recording (SIR) using the 6 H+(m/z=676.7) and 4 H+(m/z=822.1) ion species, respectively. The cone voltage for the analysis of compound (iii) and Compound 4 was set to 100 and 70 V respectively. […] The degradation of the two compounds were followed for 720 min and the results were plotted as the natural logarithm of the peak area vs. time.

carboxypeptidase A = biological target: T2, carboxypeptidase A (Bos taurus, UniProt P00730); assay: In vitro stability in carboxypeptidase A solution; conditions: pH 7.4; for half-life at 0.1 mg/ml: isolated enzyme carboxypeptidase
T2 sequence (P00730 111-419): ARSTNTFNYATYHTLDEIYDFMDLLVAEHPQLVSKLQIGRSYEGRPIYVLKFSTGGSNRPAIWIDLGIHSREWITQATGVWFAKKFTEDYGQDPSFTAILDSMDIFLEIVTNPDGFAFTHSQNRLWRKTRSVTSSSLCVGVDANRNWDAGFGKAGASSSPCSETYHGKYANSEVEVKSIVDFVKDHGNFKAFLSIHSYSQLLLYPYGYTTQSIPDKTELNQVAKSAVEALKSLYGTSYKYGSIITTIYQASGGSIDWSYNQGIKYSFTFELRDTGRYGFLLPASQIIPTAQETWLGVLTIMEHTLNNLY
Description: as §1, §2, §3, §4

Chain of dipeptidyl aminopeptidase IV (P22411 whole entry): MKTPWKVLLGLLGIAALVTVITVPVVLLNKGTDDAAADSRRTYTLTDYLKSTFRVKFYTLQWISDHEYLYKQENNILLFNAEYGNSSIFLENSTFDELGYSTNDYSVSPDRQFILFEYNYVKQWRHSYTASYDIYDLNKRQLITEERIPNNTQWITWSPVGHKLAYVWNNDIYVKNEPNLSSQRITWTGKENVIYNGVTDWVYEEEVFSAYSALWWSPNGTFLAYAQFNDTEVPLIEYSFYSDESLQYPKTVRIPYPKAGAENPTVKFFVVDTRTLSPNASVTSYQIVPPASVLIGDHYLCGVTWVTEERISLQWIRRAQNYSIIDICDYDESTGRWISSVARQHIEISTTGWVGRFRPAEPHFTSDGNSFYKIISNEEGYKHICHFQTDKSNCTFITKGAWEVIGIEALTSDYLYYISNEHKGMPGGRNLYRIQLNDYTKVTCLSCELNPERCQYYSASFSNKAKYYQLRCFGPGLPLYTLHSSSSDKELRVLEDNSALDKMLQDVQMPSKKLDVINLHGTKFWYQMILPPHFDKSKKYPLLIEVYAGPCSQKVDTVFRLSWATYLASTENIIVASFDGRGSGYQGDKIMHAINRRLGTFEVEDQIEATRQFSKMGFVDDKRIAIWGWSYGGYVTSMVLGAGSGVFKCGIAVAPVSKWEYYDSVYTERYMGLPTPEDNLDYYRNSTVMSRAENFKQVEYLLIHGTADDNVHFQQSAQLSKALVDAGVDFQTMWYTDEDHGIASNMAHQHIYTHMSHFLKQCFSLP

| SMILES | half-life at 0.1 mg/ml (leucine aminopeptidase) | half-life at 0.1 mg/ml [1] | half-life at 10 µg/ml (in vitro) | T½ in rat plasma (in vitro) | kobs (degradation rate) (in vitro) | half-life at 0.1 mg/ml (carboxypeptidase A) | half-life (leucine aminopeptidase) | half-life [1] | half-life (carboxypeptidase A) |
| --- | --- | --- | --- | --- | --- | --- | --- | --- | --- |
| CC[C@H](C)[C@H](NC(=O)[C@H](Cc1ccccc1)NC(=O)[C@H](CCC(=O)O)NC(=O)[C@H](CCCCN)NC(=O)[C@H](C)NC(=O)[C@H](C)NC(=O)[C@H](CCC(N)=O)NC(=O)CNC(=O)[C@H](CCC(=O)O)NC(=O)[C@H](CC(C)C)NC(=O)[C@H](Cc1ccc(O)cc1)NC(=O)[C@H](CO)NC(=O)[C@H](CO)NC(=O)[C@@H](NC(=O)[C@H](CC(=O)O)NC(=O)[C@H](CO)NC(=O)[C@@H](NC(=O)[C@H](Cc1ccccc1)NC(=O)[C@@H](NC(=O)CNC(=O)[C@H](CCC(=O)O)NC(=O)CNC(=O)[C@@H](N)Cc1c[nH]cn1)[C@@H](C)O)[C@@H](C)O)C(C)C)C(=O)N[C@@H](C)C(=O)N[C@@H](Cc1c[nH]c2ccccc12)C(=O)N[C@@H](CC(C)C)C(=O)N[C@H](C(=O)N[C@@H](CCCCN)C(=O)NCC(=O)N[C@@H](CCCNC(=N)N)C(=O)N[C@@H](CCCCN)C(=O)N[C@@H](CCCCN)C(=O)N[C@@H](CCCCN)C(=O)N[C@@H](CCCCN)C(=O)N[C@@H](CCCCN)C(=O)N[C@@H](CCCCN)C(N)=O)C(C)C [Compound 4] | ~36 h | 4.87 h | 7.77 h | 7.768 h | 0.0015 min⁻¹ | 2.42 h | – | – | – |
| CCCCCCCCCCCCCCCC(=O)NCCCC[C@H](NC(=O)[C@H](CCCNC(=N)N)NC(=O)CNC(=O)[C@H](CCCCN)NC(=O)[C@@H](NC(=O)[C@H](CC(C)C)NC(=O)[C@H](Cc1c[nH]c2ccccc12)NC(=O)[C@H](C)NC(=O)[C@@H](NC(=O)[C@H](Cc1ccccc1)NC(=O)[C@H](CCC(=O)O)NC(=O)[C@H](CCCCN)NC(=O)[C@H](C)NC(=O)[C@H](C)NC(=O)[C@H](CCC(N)=O)NC(=O)CNC(=O)[C@H](CCC(=O)O)NC(=O)[C@H](CC(C)C)NC(=O)[C@H](Cc1ccc(O)cc1)NC(=O)[C@H](CO)NC(=O)[C@H](CO)NC(=O)[C@@H](NC(=O)[C@H](CC(=O)O)NC(=O)[C@H](CO)NC(=O)[C@@H](NC(=O)[C@H](Cc1ccccc1)NC(=O)[C@@H](NC(=O)CNC(=O)[C@H](CCC(=O)O)NC(=O)CNC(=O)[C@@H](N)Cc1c[nH]cn1)[C@@H](C)O)[C@@H](C)O)C(C)C)[C@@H](C)CC)C(C)C)C(=O)N[C@@H](CCCCN)C(=O)N[C@@H](CCCCN)C(=O)N[C@@H](CCCCN)C(=O)N[C@@H](CCCCN)C(=O)N[C@@H](CCCCN)C(=O)N[C@@H](CCCCN)C(N)=O [Compound 5] | – | – | – | – | – | – | > 72 h | 7.33 h | > 48 h |
| CC[C@H](C)[C@H](NC(=O)[C@H](Cc1ccccc1)NC(=O)[C@H](CCC(=O)O)NC(=O)[C@H](CCCCN)NC(=O)[C@H](C)NC(=O)[C@H](C)NC(=O)[C@H](CCC(N)=O)NC(=O)CNC(=O)[C@H](CCC(=O)O)NC(=O)[C@H](CC(C)C)NC(=O)[C@H](Cc1ccc(O)cc1)NC(=O)[C@H](CO)NC(=O)[C@H](CO)NC(=O)[C@@H](NC(=O)[C@H](CC(=O)O)NC(=O)[C@H](CO)NC(=O)[C@@H](NC(=O)[C@H](Cc1ccccc1)NC(=O)[C@@H](NC(=O)CNC(=O)[C@H](CCC(=O)O)NC(=O)CNC(=O)[C@@H](N)Cc1cnc[nH]1)[C@@H](C)O)[C@@H](C)O)C(C)C)C(=O)N[C@@H](C)C(=O)N[C@@H](Cc1c[nH]c2ccccc12)C(=O)N[C@@H](CC(C)C)C(=O)N[C@H](C(=O)N[C@@H](CCCCN)C(=O)NCC(=O)N[C@@H](CCCNC(=N)N)C(N)=O)C(C)C [Compound (iii), reference compound] | 11.6 h | 0.933 h | 3.97 h | 3.973 h | 0.0029 min⁻¹ | 2.12 h | – | – | – |
